Experiments:
Type in all cases: functional
TK-10 = assay: Cytotoxicity against human TK10 cells after 48 hrs by SRB assay; conditions: TK-10, 48 h; for CC50: read-out: LC50 (the source's name)
SW-620 = assay: Cytotoxicity against human SW620 cells assessed as cell growth at 0.01 uM after 48 hrs by SRB assay relative to control; conditions: SW-620, 48 h, read-out: Activity
MDA-MB-435 = assay: Cytotoxicity against human MDA-MB-435 cells assessed as cell growth at 0.01 uM after 48 hrs by SRB assay relative to control; conditions: MDA-MB-435, 48 h, read-out: Activity
SK-MEL-28 = assay: Cytotoxicity against human SK-MEL-28 cells assessed as cell growth at 0.1 uM after 48 hrs by SRB assay relative to control; conditions: SK-MEL-28, 48 h, read-out: Activity
SF-295 [1] = assay: Cytotoxicity against human SF295 cells assessed as cell growth at 100 uM after 48 hrs by SRB assay relative to control; conditions: SF-295, 48 h, read-out: Activity
SR [2] = assay: Cytotoxicity against human SR cells assessed as cell growth at 100 uM after 48 hrs by SRB assay relative to control; conditions: read-out: Activity
M14 [3] = assay: Cytotoxicity against human M14 cells assessed as cell growth at 0.01 uM after 48 hrs by SRB assay relative to control; conditions: M14, 48 h, read-out: Activity
MCF7 = assay: Cytotoxicity against human MCF7 cells assessed as cell growth at 0.01 uM after 48 hrs by SRB assay relative to control; conditions: MCF7, 48 h, read-out: Activity
SF-539 = assay: Cytotoxicity against human SF539 cells assessed as cell growth at 0.1 uM after 48 hrs by SRB assay relative to control; conditions: SF-539, 48 h, read-out: Activity
HT-29 = assay: Cytotoxicity against human HT-29 cells after 48 hrs by SRB assay; conditions: HT-29, 48 h
HCC 2998 = assay: Cytotoxicity against human HCC2998 cells assessed as cell growth at 0.01 uM after 48 hrs by SRB assay relative to control; conditions: HCC 2998, 48 h, read-out: Activity
A549 = assay: Cytotoxicity against human A549 cells assessed as cell growth at 100 uM after 48 hrs by SRB assay relative to control; conditions: A549, 48 h, read-out: Activity
M14 [4] = assay: Cytotoxicity against human M14 cells assessed as cell growth at 100 uM after 48 hrs by SRB assay relative to control; conditions: M14, 48 h, read-out: Activity
SK-MEL-2 = assay: Cytotoxicity against human SK-MEL-2 cells assessed as cell growth at 0.1 uM after 48 hrs by SRB assay relative to control; conditions: SK-MEL-2, 48 h, read-out: Activity
M14 [5] = assay: Cytotoxicity against human M14 cells after 48 hrs by SRB assay; conditions: M14, 48 h
HOP-92 = assay: Cytotoxicity against human HOP92 cells assessed as cell growth at 0.01 uM after 48 hrs by SRB assay relative to control; conditions: HOP-92, 48 h, read-out: Activity
SK-OV-3 = assay: Cytotoxicity against human SKOV3 cells after 48 hrs by SRB assay; conditions: SK-OV-3, 48 h
DU-145 = assay: Cytotoxicity against human DU145 cells assessed as cell growth at 0.1 uM after 48 hrs by SRB assay relative to control; conditions: DU-145, 48 h, read-out: Activity
COLO 205 = assay: Cytotoxicity against human COLO205 cells assessed as cell growth at 0.1 uM after 48 hrs by SRB assay relative to control; conditions: COLO 205, 48 h, read-out: Activity
RXF 393 = assay: Cytotoxicity against human RXF393 cells assessed as cell growth at 100 uM after 48 hrs by SRB assay relative to control; conditions: RXF 393, 48 h, read-out: Activity
PC-3 = assay: Cytotoxicity against human PC3 cells after 48 hrs by SRB assay; conditions: PC-3, 48 h
MDA-MB-231 [6] = assay: Cytotoxicity against human MDA-MB-231 cells after 48 hrs by SRB assay; conditions: MDA-MB-231, 48 h
Hs-578T = assay: Cytotoxicity against human Hs 578T cells assessed as cell growth at 100 uM after 48 hrs by SRB assay relative to control; conditions: read-out: Activity
T47D [7] = assay: Cytotoxicity against human T47D cells assessed as cell growth at 1 uM after 48 hrs by SRB assay relative to control; conditions: read-out: Activity
HCT-15 [8] = assay: Cytotoxicity against human HCT15 cells assessed as cell growth at 0.1 uM after 48 hrs by SRB assay relative to control; conditions: HCT-15, 48 h, read-out: Activity
NCI/ADR-RES = assay: Cytotoxicity against human NCI-ADR-RES cells assessed as cell growth at 0.1 uM after 48 hrs by SRB assay relative to control; conditions: read-out: Activity
SNB-19 [9] = assay: Cytotoxicity against human SNB19 cells assessed as cell growth at 100 uM after 48 hrs by SRB assay relative to control; conditions: SNB-19, 48 h, read-out: Activity
UACC-62 = assay: Cytotoxicity against human UACC62 cells assessed as cell growth at 0.1 uM after 48 hrs by SRB assay relative to control; conditions: UACC-62, 48 h, read-out: Activity
SR [10] = assay: Cytotoxicity against human SR cells assessed as cell growth at 0.1 uM after 48 hrs by SRB assay relative to control; conditions: read-out: Activity
OVCAR-5 = assay: Cytotoxicity against human OVCAR5 cells assessed as cell growth at 100 uM after 48 hrs by SRB assay relative to control; conditions: OVCAR-5, 48 h, read-out: Activity
SF-295 [11] = assay: Cytotoxicity against human SF295 cells assessed as cell growth at 0.01 uM after 48 hrs by SRB assay relative to control; conditions: SF-295, 48 h, read-out: Activity
SNB-19 [12] = assay: Cytotoxicity against human SNB19 cells assessed as cell growth at 1 uM after 48 hrs by SRB assay relative to control; conditions: SNB-19, 48 h, read-out: Activity
HCT-15 [13] = assay: Cytotoxicity against human HCT15 cells after 48 hrs by SRB assay; conditions: HCT-15, 48 h
NCI-H23 = assay: Cytotoxicity against human NCI-H23 cells assessed as cell growth at 0.1 uM after 48 hrs by SRB assay relative to control; conditions: NCI-H23, 48 h, read-out: Activity
MDA-MB-231 [14] = assay: Cytotoxicity against human MDA-MB-231 cells assessed as cell growth at 0.1 uM after 48 hrs by SRB assay relative to control; conditions: MDA-MB-231, 48 h, read-out: Activity
T47D [15] = assay: Cytotoxicity against human T47D cells after 48 hrs by SRB assay

N#CCCCCCn1cc(C2=C(c3cn(CCCCCC#N)c4ccccc34)C(=O)N(O)C2=O)c2ccccc21 gave a GI50 (TK-10) of 22.2 µM, a TGI (TK-10) greater than 100 µM and a CC50 (TK-10) greater than 100 µM. It also gave a growth at 0.01 µM (SW-620) of 100%, a growth at 0.01 µM (MDA-MB-435) of 95% and a growth at 0.1 µM (SK-MEL-28) of 102%. It also gave a growth at 100 µM (SF-295 [1]) of -37%, a growth at 100 µM (SR [2]) of -14% and a growth at 0.01 µM (M14 [3]) of 97%. For the same compound, the growth at 0.01 µM (MCF7) was 91%, the growth at 0.1 µM (SF-539) was 90% and the GI50 (HT-29) was 10.2 µM. It also gave an LC50 (HT-29) greater than 100 µM, a TGI (HT-29) of 40.7 µM and a growth at 0.01 µM (HCC 2998) of 98%. The growth at 100 µM (A549) was 5%, the growth at 100 µM (M14 [4]) was -25% and the growth at 0.1 µM (SK-MEL-2) was 98%. It also gave a GI50 (M14 [5]) of 4.42 µM, an LC50 (concentration killing 50% of cells) (M14 [5]) greater than 100 µM and a TGI (M14 [5]) of 34 µM. It also gave a growth at 0.01 µM (HOP-92) of 97%, a GI50 (SK-OV-3) of 7.78 µM and an LC50 (SK-OV-3) greater than 100 µM. For the same compound, the TGI (SK-OV-3) was greater than 100 µM, the growth at 0.1 µM (DU-145) was 103% and the growth at 0.1 µM (COLO 205) was 93%. The growth at 100 µM (RXF 393) was -25%, the GI50 (PC-3) was 3.92 µM and the LC50 (PC-3) was greater than 100 µM. For the same compound, the TGI (PC-3) was 74 µM, the GI50 (MDA-MB-231 [6]) was 4.26 µM and the LC50 (50% lethal concentration) (MDA-MB-231 [6]) was greater than 100 µM. It also gave a TGI (MDA-MB-231 [6]) of 64.7 µM, a growth at 100 µM (Hs-578T) of 5% and a growth at 1 µM (T47D [7]) of 89%. The growth at 0.1 µM (HCT-15 [8]) was 93%, the growth at 0.1 µM (NCI/ADR-RES) was 92% and the growth at 100 µM (SNB-19 [9]) was 20%. The growth at 0.1 µM (UACC-62) was 94%, the growth at 0.1 µM (SR [10]) was 100% and the growth at 100 µM (OVCAR-5) was 18%. For the same compound, the growth at 0.01 µM (SF-295 [11]) was 98%, the growth at 1 µM (SNB-19 [12]) was 91% and the GI50 (HCT-15 [13]) was 3.88 µM. For the same compound, the LC50 (HCT-15 [13]) was greater than 100 µM, the TGI (HCT-15 [13]) was greater than 100 µM and the growth at 0.1 µM (NCI-H23) was 90%. For the same compound, the growth at 0.1 µM (MDA-MB-231 [14]) was 91%, the GI50 (T47D [15]) was 4.15 µM and the LC50 (T47D [15]) was greater than 100 µM. The TGI (T47D [15]) was 60.5 µM.

In the case of Cn1cc(C2=C(c3cn(C)c4ncccc34)C(=O)NC2=O)c2ccccc21, the GI50 (TK-10) was 4.82 µM, the TGI (TK-10) was 43.9 µM and the CC50 (TK-10) was greater than 100 µM. For the same compound, the growth at 0.01 µM (SW-620) was 96%, the growth at 0.01 µM (MDA-MB-435) was 98% and the growth at 0.1 µM (SK-MEL-28) was 95%. It also gave a growth at 100 µM (SF-295 [1]) of -20%, a growth at 100 µM (SR [2]) of -21% and a growth at 0.01 µM (M14 [3]) of 105%. It also gave a growth at 0.01 µM (MCF7) of 93%, a growth at 0.1 µM (SF-539) of 107% and a GI50 (HT-29) of 3.07 µM. It also gave a TGI (HT-29) of 20.6 µM, a growth at 0.01 µM (HCC 2998) of 103% and a growth at 100 µM (A549) of -19%. It also gave a growth at 100 µM (M14 [4]) of -67%, a growth at 0.1 µM (SK-MEL-2) of 113% and a GI50 (M14 [5]) of 3.84 µM. For the same compound, the TGI (M14 [5]) was 12.5 µM, the growth at 0.01 µM (HOP-92) was 90% and the GI50 (SK-OV-3) was 2.09 µM. The TGI (SK-OV-3) was 8 µM, the growth at 0.1 µM (DU-145) was 102% and the growth at 0.1 µM (COLO 205) was 109%. The growth at 100 µM (RXF 393) was -49%, the GI50 (PC-3) was 3.72 µM and the TGI (PC-3) was 52.9 µM. The GI50 (MDA-MB-231 [6]) was 4.67 µM, the TGI (MDA-MB-231 [6]) was 38.8 µM and the growth at 100 µM (Hs-578T) was -37%. It also gave a growth at 1 µM (T47D [7]) of 74%, a growth at 0.1 µM (HCT-15 [8]) of 103% and a growth at 0.1 µM (NCI/ADR-RES) of 96%. The growth at 100 µM (SNB-19 [9]) was -11%, the growth at 0.1 µM (UACC-62) was 97% and the growth at 0.1 µM (SR [10]) was 88%. The growth at 100 µM (OVCAR-5) was -15%, the growth at 0.01 µM (SF-295 [11]) was 98% and the growth at 1 µM (SNB-19 [12]) was 91%. It also gave a GI50 (HCT-15 [13]) of 3.49 µM, a TGI (HCT-15 [13]) of 60.5 µM and a growth at 0.1 µM (NCI-H23) of 95%. The growth at 0.1 µM (MDA-MB-231 [14]) was 104%, the GI50 (T47D [15]) was 2.37 µM and the TGI (T47D [15]) was 30.3 µM.
